Measurements taken from article PMC9873282, “Design, synthesis and evaluation of quinoline-O-carbamate derivatives as multifunctional agents for the treatment of Alzheimer’s disease” (Journal of Enzyme Inhibition and Medicinal Chemistry, 2023).
“And” between values parts separate entries of the source, which are not always exact repeats. Equal values may be shown once.

Experiments:
[1] = molecular target: T1, eeAChE (Electrophorus electricus, UniProt O42275); experiment: biochemical; parameters: species or system electric eel; details: AChE from electric eel; read-out: IC50 ± SD eeAChE
T1 construct: eeAChE, from the electric eel; purchased Sigma Aldrich; host or cells: electric eel (natural source)
T1 sequence (O42275 24-633): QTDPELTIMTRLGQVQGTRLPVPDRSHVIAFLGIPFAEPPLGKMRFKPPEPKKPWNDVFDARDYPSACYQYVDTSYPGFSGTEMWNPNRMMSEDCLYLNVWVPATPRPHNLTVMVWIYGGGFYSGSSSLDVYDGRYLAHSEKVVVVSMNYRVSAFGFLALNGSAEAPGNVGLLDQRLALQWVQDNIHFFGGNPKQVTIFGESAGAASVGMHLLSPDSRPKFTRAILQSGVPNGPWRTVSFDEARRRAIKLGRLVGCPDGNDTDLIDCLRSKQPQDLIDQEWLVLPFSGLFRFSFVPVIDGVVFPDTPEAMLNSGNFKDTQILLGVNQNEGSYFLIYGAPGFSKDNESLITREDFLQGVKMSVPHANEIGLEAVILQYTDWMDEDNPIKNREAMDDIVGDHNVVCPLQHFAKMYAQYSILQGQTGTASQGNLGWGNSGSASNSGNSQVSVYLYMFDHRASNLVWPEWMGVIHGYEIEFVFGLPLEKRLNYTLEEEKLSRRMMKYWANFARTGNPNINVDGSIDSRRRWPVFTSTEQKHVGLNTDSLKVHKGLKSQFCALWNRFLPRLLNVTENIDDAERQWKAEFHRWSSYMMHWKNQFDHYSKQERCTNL
Description: The inhibitory activities of the synthesised compounds against eeAChE (from electric eel) and eqBuChE (from equine serum) were tested by the modified Ellman’s method[26]^,[27]. […] The determination of AChE and BuChE inhibitory potency of the synthesised compounds were evaluated by Ellman assay, the detailed procedure referred to our previous work[26]^,[27].

[2] = tested on: BV-2 cells; experiment: Cytotoxicity on BV-2 cells (CCK8 assay); type: cell-based; details: compounds at 2 µM
Description: (§1) Firstly, the cytotoxicity of compounds 3a, 3c, 3e, 3f, 3k, 3m and 3n were tested using CCK8 assay.
BV-2 cells were cultured in DMEM containing 10% foetal bovine serum, 100 U/mL penicillin, 100 U/mL streptomycin, and 1% nonessential amino acid at 37 °C with 5% CO2.
BV-2 cells in logarithmic growth stage were digested and centrifuged, and then resuspended in DMEM medium containing 1% penicillin-streptomycin and 10% foetal bovine serum. The cells was adjusted to 1.2 × 10^4 cells/well, and then seeded evenly in 96-well cell culture plates. The cells were incubated for 36 h at 37 °C with 5% CO2. After incubation, the cells were added to different concentrations (10 and 2 µM) of tested compounds, and incubated for 24 h at 37 °C with 5% CO2. Then, 10 µL CCK-8 solution was added to each well, and incubated for another 1 h at 37 °C with 5% CO2. The OD values were tested at […]. The cell viability (%) = {(ODdrug−ODblank)}/{(ODcontrol−ODblank)} × 100%.

[3] = tested on: AlCl3-induced zebrafish AD model; experiment: Behavioural assay in AlCl3-induced zebrafish AD model; type: in vivo
[4] = molecular target: T1, eeAChE; experiment: Enzyme kinetic study (Lineweaver-Burk) of eeAChE inhibition; type: biochemical, electric eel
Description: In order to determine the mechanism of quinoline-O-carbamate derivatives, the representative compound 3f was chose to perform Lineweaver-Burk double reciprocal plot by plotting the initial velocities of the substrate at y-axis and increasing concentrations substrate at x-axis[27].
Figure 7. Enzyme kinetic study on the mechanism of eeAChE inhibition by compound 3f. (A) Overlaid Lineweaver-Burk reciprocal plots of AChE initial velocity at increasing acetylthiocholine concentration in the absence and in the presence of 3f were determined.

[5] = molecular target: T2, hAChE (Homo sapiens, UniProt P22303); experiment: hAChE reversibility of inhibition (recovery after dilution); type: biochemical
T2 construct: hAChE, from human erythrocytes AChE; purchased Sigma Aldrich; host or cells: human erythrocytes (natural source)
T2 sequence (P22303 32-617 isoform P22303-2 limits assumed): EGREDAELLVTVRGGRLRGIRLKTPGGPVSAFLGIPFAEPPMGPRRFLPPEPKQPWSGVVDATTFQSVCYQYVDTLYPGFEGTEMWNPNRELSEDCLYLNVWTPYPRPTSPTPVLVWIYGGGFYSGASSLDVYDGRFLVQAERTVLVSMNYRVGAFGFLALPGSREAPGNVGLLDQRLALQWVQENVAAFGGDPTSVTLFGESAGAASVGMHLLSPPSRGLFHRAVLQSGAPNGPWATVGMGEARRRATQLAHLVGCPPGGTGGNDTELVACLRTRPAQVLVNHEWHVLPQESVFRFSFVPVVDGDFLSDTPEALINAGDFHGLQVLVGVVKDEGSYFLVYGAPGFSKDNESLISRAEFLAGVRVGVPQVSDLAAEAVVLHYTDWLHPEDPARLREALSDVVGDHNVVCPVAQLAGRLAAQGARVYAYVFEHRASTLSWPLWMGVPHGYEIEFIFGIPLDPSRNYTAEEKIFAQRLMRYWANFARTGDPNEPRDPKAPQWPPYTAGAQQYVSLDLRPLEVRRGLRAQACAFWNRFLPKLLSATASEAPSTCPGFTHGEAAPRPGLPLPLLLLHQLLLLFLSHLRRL

[6] = tested on: zebrafish embryos; experiment: Acute toxicity in zebrafish embryos
Description: The survival rate of zebrafish embryos was observed and recorded every 24h, and observation was stopped when zebrafish embryos developed to 120 hpf. […] When the culture was to be 120hpf, photographic observations were made under a body microscope (RM2235; Leica). And the body length, pericardial oedema, swim bladder area, liver area, and liver fluorescence intensity of zebrafish were measured by ImageJ software. • Zebrafish experimental grouping. […] All the data were expressed as mean ± SEM and statistical analysis were performed using GraphPad Prism software. The significance of differences were determined using one-way ANOVA. Data were expressed as mean ± standard deviation, and *p < 0.05 indicates a significant difference.

[7] = tested on: PC12 cells; experiment: Cytotoxicity on PC12 cells; type: cell-based; details: at concentration below 40 µM
Description: The neuroprotective effect of compounds 3a, 3c, 3e, 3f, 3k, 3m, and 3n on Aβ25–35-induced PC12 cells injury were evaluated using CCK-8 assay. […] Furthermore, as shown in Figure 12(B), when PC12 cells were exposed to 25 µM Aβ25-35, the cell viability sharply declined to 57.3% (p < 0.01) compared with untreated group.
The PC12 cells during the logarithmic growth phase were digested and centrifuged with pancreatic enzyme solution, the cells were resuspended by adding the prepared media solution, and piped evenly with a pipette to seed in a 96-well cell culture plate (cell concentration adjusted to 2.0 × 10^4 cell·mL^−1). Each well was added 100 µL complete medium was added to each well and incubated at 37 °C and 5% CO2 for 24 h.

[8] = molecular target: T3, hBuChE (Homo sapiens, UniProt P06276); experiment: biochemical
T3 construct: hBuChE, human serum BuChE; purchased Sigma Aldrich; host or cells: human serum (natural source)
T3 sequence (P06276 29-602): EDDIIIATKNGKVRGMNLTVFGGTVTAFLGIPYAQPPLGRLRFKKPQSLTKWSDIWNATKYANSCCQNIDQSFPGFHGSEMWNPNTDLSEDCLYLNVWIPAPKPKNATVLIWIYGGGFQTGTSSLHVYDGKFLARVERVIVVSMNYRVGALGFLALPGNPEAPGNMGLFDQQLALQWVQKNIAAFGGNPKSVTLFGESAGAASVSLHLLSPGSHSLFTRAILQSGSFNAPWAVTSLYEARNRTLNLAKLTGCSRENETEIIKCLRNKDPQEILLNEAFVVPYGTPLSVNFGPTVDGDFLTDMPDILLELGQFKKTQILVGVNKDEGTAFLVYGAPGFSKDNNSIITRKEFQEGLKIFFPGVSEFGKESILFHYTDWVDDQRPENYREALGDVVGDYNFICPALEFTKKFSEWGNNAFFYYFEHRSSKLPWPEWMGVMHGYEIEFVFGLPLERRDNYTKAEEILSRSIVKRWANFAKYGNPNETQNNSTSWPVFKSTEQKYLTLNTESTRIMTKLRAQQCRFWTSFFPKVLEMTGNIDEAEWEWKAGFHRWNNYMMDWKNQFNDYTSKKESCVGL
Description: (§2) Acetylcholinesterase (eeAChE, from the electric eel; hAChE, from human erythrocytes AChE), butyrylcholinesterase (eqBuChE, from equine serum; hBuChE, human serum BuChE), 5,5′-dithiobis-2-nitrobenzoic acid (Ellman’s reagent, DTNB), acetylthiocholine chloride (ATC), and butyrylthiocholine chloride (BTC) were purchased form Sigma Aldrich. The determination of AChE and BuChE inhibitory potency of the synthesised compounds were evaluated by Ellman assay, the detailed procedure referred to our previous work[26]^,[27].

[9] = molecular target: T2, hAChE; experiment: biochemical; details: from human erythrocytes; read-out: IC50 ± SD hAChE
Description: as §2

[10] = tested on: IL-1β; experiment: IL-1β production in LPS-stimulated BV-2 cells (ELISA); type: cell-based; details: 1 µg/mL LPS 24 h
Description: as §1
BV-2 cells (2 × 10^5 cells/well) were seeded in a 24-well cell culture plates. The cells were divided into blank control group, model group (1 µg/mL LPS), LPS + 2 µM compound group, LPS + 1 µM compound group. Each drug group was pre-treated with corresponding concentration of drug solution for 8 h. After 8 h, the culture medium was aspirated out. Except for the blank control group, which was added with DMEM medium, the other groups were stimulated with 1 µg/mL LPS for 24 h. Then cell supernatant was aspirated and centrifuged at 3000 rpm for 3 min. The content of NO in cell culture supernatant was determined by Griess method, and the levels of cytokines IL-6 and IL-1β in cell culture supernatant were determined by IL-6 ELISA kit and IL-1β ELISA kit, respectively.

[11] = molecular target: T3, hBuChE; experiment: hBuChE reversibility of inhibition (recovery after dilution); type: biochemical
[12] = alternating dark light stimuli, 0.08 µM
[13] = alternating dark light stimuli, 0.16 µM
[14] = alternating dark light stimuli, 0.32 µM

SMILES: CCN(CC)C(=O)Oc1cccc2ncccc12 [Compound 3f, Quinolin-5-yl diethylcarbamate]
- IC50 [1]: 1300 ± 20 nM
- cell viability of BV-2 cells [2]: did not show obvious change
- total velocity ([3]; 0.16 µM, compared with donepezil): could improve AlCl3-induced zebrafish AD model
- distance moved [3, 12]: 1029.2 cm
- velocity [3, 12]: 17.5 cm/min
- distance moved [3, 13]: 1241.5 cm
- velocity [3, 13]: 22.3 cm/min
- distance moved [3, 14]: 1022.8 cm
- velocity [3, 14]: 17.0 cm/min
- distance moved ([3]; dark environment, 0.08 µM): 607.3 cm
- velocity ([3]; dark environment, 0.08 µM): 21.3 cm/min
- distance moved ([3]; dark environment, 0.16 µM): 709.4 cm
- velocity ([3]; dark environment, 0.16 µM): 24.7 cm/min
- distance moved ([3]; dark environment, 0.32 µM): 521.7 cm
- velocity ([3]; dark environment, 0.32 µM): 17.3 cm/min
- optimal dose ([3]; dyskinesia and reaction capacity, ACh levels): 0.16 µM
- velocity ([3]; light condition, 0.08 µM): 14.7 cm/min
- velocity ([3]; light condition, 0.16 µM): 19.3 cm/min
- velocity ([3]; light condition, 0.32 µM): 17.6 cm/min
- type of AChE inhibition ([4]; Lineweaver-Burk plot): mixed-type
- Ki ([4]; replot of slope versus concentration, read-out: inhibition constant Ki): 1730 nM
- reversibility of hAChE inhibition [5]: reversible hAChE inhibitor
- hAChE activity restored ([5]; 0.1 × IC50, at 120 min): 94.7%
- percentage survival ([6]; 40.9 µM, 4 hpf): 100%
- survival ([6]; 40.9 µM, 24 hpf): all the zebrafish were dead
- liver florescence area and median fluorescence intensity ([6]; 0.65, 1.3 and 2.6 µM): did not produce obvious change
- pericardial oedema/body length ([6]; at five concentrations of 3f, 120 hpf): did not produce significant change
- maximum non-lethal concentration (MNLC) ([6]; zebrafish, in vivo): 20.5 µM
- cytotoxicity on PC12 cells [7]: did not show any cytotoxicity
- IC50 ([8]; from human serum, read-out: IC50 ± SD hBuChE): 2340 nM and 2300 nM
- SI = IC50 (AChE)/IC50 (BuChE) ([8]; hAChE/hBuChE): 2.4
- IC50 [9]: 5.6 ± 0.07 µM
- levels of IL-1β compared with model group [10]: significantly decreased
- reversibility of hBuChE inhibition [11]: reversible hBuChE inhibitor
- hBuChE activity (% control) ([11]; 0.1*IC50, diluted): 53.6 % control
- hBuChE activity restored ([11]; 0.1 × IC50, 120 min): 70.7%
- hBuChE activity restored ([11]; 0.1 × IC50, 240 min): 95.6%
- hBuChE activity (% control) ([11]; 1*IC50, diluted): 51.4 % control
- hBuChE activity (% control) ([11]; 1*IC50, undiluted): 48.8 % control
